According to the supplement of paper PMC11208160:

Assay: recombinant barcode read abundance after kanamycin selection (control-corrected) (log10(CPM+1)); higher = more efficient recombination; sequences stand for … in AGTGCAGAGAAAATCGGCCAGTTTTCTCTGCCTGCAGTCCGCATGCCGT…AGATTTATGCAGCGGACTGCCTTTCTCCCAAAGTGATAAACCGGACAGTATCATGGACCGGTTTTCCCGGTAATCCGTATTTGCAAGGTTGGTTTCACT; site = the 11-nt target
Procedure, shortened: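 Pooled oligos, each joining a target to an IS621 bridge RNA target-binding loop, were cloned and co-electroporated with a donor plasmid into E. coli. Selective plates carried chloramphenicol/ampicillin/kanamycin and 0.1 mM IPTG, while chloramphenicol/ampicillin LB agar served as control, with two replicates of each. Recombination efficiency rests on averaged, control-corrected counts per million of barcodes at recombinant junctions, shown as log10(CPM+1).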
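Note: IS621 recombinase and bridge RNA in Escherichia coli cells.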

Row | Sequence | recombinant barcode read abundance (log10)
1 | CACACCACTTGGGTTCTAACCTGTTGCCT (site CACAACACTAG) | 0.243
2 | CACACCACTTGGGTTCTAACCTGTTGCCT (site CACACCACTAG) | 0.698
3 | CACACCACTTGGGTTCTAACCTGTTGCCT (site CACAGCACTAG) | 0.211
4 | CACACCACTTGGGTTCTAACCTGTTGCCT (site CACATCACTAG) | 0.108
5 | CACACCGCTTGGGTTCTAACCTGTTGCCT (site CACACCGCTAG) | 1.62
6 | CACACCGCTTGGGTTCTAACCTGTTGCCT (site CACACGGCTAG) | 0.0403
7 | CACACTCCTTGGGTTCTAACCTGTTGCAG (site CACACTCCTCT) | 0.498
8 | CACACTCCTTGGGTTCTAACCTGTTGCAG (site CAGACGCCTCT) | 0.193
9 | CACAGTGCTTGGGTTCTAACCTGTTGCCT (site CACAGTGCTAG) | 0.235
10 | CACAGTGCTTGGGTTCTAACCTGTTGCCT (site CAGAGTACTAG) | 0.0936
11 | CACATACCTTGGGTTCTAACCTGTTGCCG (site CACATACCTAC) | 0.0694
12 | CACATACCTTGGGTTCTAACCTGTTGCCG (site CACATACCTCG) | 0.443
13 | CACATACCTTGGGTTCTAACCTGTTGCGT (site CACATACCTAC) | 1.92
14 | CACATACCTTGGGTTCTAACCTGTTGCGT (site CACATACCTCG) | 0.0777
15 | CACATCGCTTGGGTTCTAACCTGTTGCCT (site CACATCGCTAG) | 1.08
16 | CACATCGCTTGGGTTCTAACCTGTTGCCT (site TACTTCGCTAG) | 0.155
17 | CACATGGCTTGGGTTCTAACCTGTTGCCG (site CACAGGGCTCC) | 0.159
18 | CACATGGCTTGGGTTCTAACCTGTTGCCG (site CACATGGCTCG) | 0.259
19 | CACCAACCTTGGGTTCTAACCTGTTGCCT (site CACCAAACTAG) | 0.112
20 | CACCAACCTTGGGTTCTAACCTGTTGCCT (site CACCAACCTAG) | 0.313
21 | CACCAGTCTTGGGTTCTAACCTGTTGCGG (site CACAAGTCTAC) | 0.0664
22 | CACCAGTCTTGGGTTCTAACCTGTTGCGG (site CACCAGTCTCC) | 2.14
23 | CACCCTACTTGGGTTCTAACCTGTTGCCT (site AACCCTACTAG) | 0.04
24 | CACCCTACTTGGGTTCTAACCTGTTGCCT (site CACCCTACTAG) | 1.26
25 | CACCCTACTTGGGTTCTAACCTGTTGCCT (site GACCCTACTAG) | 0.0997
26 | CACCCTACTTGGGTTCTAACCTGTTGCCT (site TACCCTACTAG) | 0.0523

Row | Sequence | recombinant barcode read abundance (log10)
27 | CACCGTCCTTGGGTTCTAACCTGTTGCGT (site CACCGTCCTAC) | 3.03
28 | CACCGTCCTTGGGTTCTAACCTGTTGCGT (site CACCGTCCTAT) | 1.57
29 | CACCTGACTTGGGTTCTAACCTGTTGCCG (site CACCTGACTCG) | 0.599
30 | CACCTGACTTGGGTTCTAACCTGTTGCCG (site CACCTGTCTCG) | 0.0187
31 | CACCTGTCTTGGGTTCTAACCTGTTGCGG (site AGATATACTAA) | 0.0793
32 | CACCTGTCTTGGGTTCTAACCTGTTGCGG (site CACCTGTCTCC) | 1.8
33 | CACGATCCTTGGGTTCTAACCTGTTGCTT (site AGTCGGACTGT) | 0.11
34 | CACGATCCTTGGGTTCTAACCTGTTGCTT (site CACGATCCTAA) | 1.52
35 | CACGCAACTTGGGTTCTAACCTGTTGCTT (site CACGCAACTAA) | 0.476
36 | CACGCAACTTGGGTTCTAACCTGTTGCTT (site GAGGCAACTAA) | 0.888
37 | CACTATCCTTGGGTTCTAACCTGTTGCCT (site CAATATCCTAG) | 0.0585
38 | CACTATCCTTGGGTTCTAACCTGTTGCCT (site CACTATCCTAG) | 2.16
39 | CACTATCCTTGGGTTCTAACCTGTTGCCT (site CAGTATCCTAG) | 0.157
40 | CACTATCCTTGGGTTCTAACCTGTTGCCT (site CATTATCCTAG) | 0.0363
41 | CACTCTGCTTGGGTTCTAACCTGTTGCCT (site CAATCTGCTAG) | 0.617
42 | CACTCTGCTTGGGTTCTAACCTGTTGCCT (site CACTCTGCTAG) | 0.569
43 | CACTCTGCTTGGGTTCTAACCTGTTGCCT (site CAGTCTGCTAG) | 0.0477
44 | CACTCTGCTTGGGTTCTAACCTGTTGCCT (site CATTCTGCTAG) | 0.332
45 | CACTGGGCTTGGGTTCTAACCTGTTGCAG (site CACTGGGCTCT) | 0.791
46 | CACTGGGCTTGGGTTCTAACCTGTTGCAG (site CACTTGGCTCT) | 0.115
47 | CACTGTTCTTGGGTTCTAACCTGTTGCCT (site CACTGATCTAG) | 0.325
48 | CACTGTTCTTGGGTTCTAACCTGTTGCCT (site CACTGCTCTAG) | 0.0508
49 | CACTGTTCTTGGGTTCTAACCTGTTGCCT (site CACTGGTCTAG) | 0.069
50 | CACTGTTCTTGGGTTCTAACCTGTTGCCT (site CACTGTTCTAG) | 0.737
51 | CACTTCCCTTGGGTTCTAACCTGTTGCAT (site CACTTCCCTAA) | 0.0158
52 | CACTTCCCTTGGGTTCTAACCTGTTGCAT (site CACTTCCCTAC) | 0.106

Row | Sequence | recombinant barcode read abundance (log10)
53 | CACTTCCCTTGGGTTCTAACCTGTTGCAT (site CACTTCCCTAG) | 0.316
54 | CACTTCCCTTGGGTTCTAACCTGTTGCAT (site CACTTCCCTAT) | 1.93
55 | CACTTCCCTTGGGTTCTAACCTGTTGCGA (site AGTGAAGCTGT) | 0.222
56 | CACTTCCCTTGGGTTCTAACCTGTTGCGA (site CACTTCCCTTC) | 0.492
57 | CACTTCCCTTGGGTTCTAACCTGTTGCGT (site CACTTCCCTAA) | 0.0684
58 | CACTTCCCTTGGGTTCTAACCTGTTGCGT (site CACTTCCCTAC) | 2.4
59 | CACTTCCCTTGGGTTCTAACCTGTTGCGT (site CACTTCCCTAG) | 0.402
60 | CACTTCCCTTGGGTTCTAACCTGTTGCGT (site CACTTCCCTAT) | 1.5
61 | CACTTGGCTTGGGTTCTAACCTGTTGCCT (site CACTTGACTAG) | 0.0371
62 | CACTTGGCTTGGGTTCTAACCTGTTGCCT (site CACTTGCCTAG) | 0.366
63 | CACTTGGCTTGGGTTCTAACCTGTTGCCT (site CACTTGGCTAG) | 0.134
64 | CACTTGGCTTGGGTTCTAACCTGTTGCCT (site CACTTGTCTAG) | 0.0944
65 | CAGAACACTTGGGTTCTAACCTGTTGCCT (site AAGAACACTAG) | 0.0991
66 | CAGAACACTTGGGTTCTAACCTGTTGCCT (site CAGAACACTAG) | 1.94
67 | CAGAACACTTGGGTTCTAACCTGTTGCCT (site GAGAACACTAG) | 0.198
68 | CAGAACACTTGGGTTCTAACCTGTTGCCT (site TAGAACACTAG) | 0.171
69 | CAGCCCTCTTGGGTTCTAACCTGTTGCCT (site CAGCCCTCTAG) | 2.59
70 | CAGCCCTCTTGGGTTCTAACCTGTTGCCT (site CCGCCCTCTAG) | 0.883
71 | CAGCCCTCTTGGGTTCTAACCTGTTGCCT (site CGGCCCTCTAG) | 0.0354
72 | CAGCCCTCTTGGGTTCTAACCTGTTGCCT (site CTGCCCTCTAG) | 0.315
73 | CAGCTACCTTGGGTTCTAACCTGTTGCCT (site CAGCTACCTAG) | 1.73
74 | CAGCTACCTTGGGTTCTAACCTGTTGCCT (site CCGCTACCTAG) | 0.334
75 | CAGCTACCTTGGGTTCTAACCTGTTGCCT (site CGGCTACCTAG) | 0.226
76 | CAGCTACCTTGGGTTCTAACCTGTTGCCT (site CTGCTACCTAG) | 0.585
77 | CAGGACTCTTGGGTTCTAACCTGTTGCTT (site CAGCACTCTTA) | 0.0832
